Data from article doi:10.1101/2025.10.08.681114v1 (biorxiv, 2025).

Target: CHI3L1 (hCHI3L1, CHI3L1-His, YKL-40) (Homo sapiens, UniProt P36222)
Test: microscale thermophoresis dose-response
Format: binding

CHI3L1 (hCHI3L1, CHI3L1-His, YKL-40), sequence (P36222 22-383): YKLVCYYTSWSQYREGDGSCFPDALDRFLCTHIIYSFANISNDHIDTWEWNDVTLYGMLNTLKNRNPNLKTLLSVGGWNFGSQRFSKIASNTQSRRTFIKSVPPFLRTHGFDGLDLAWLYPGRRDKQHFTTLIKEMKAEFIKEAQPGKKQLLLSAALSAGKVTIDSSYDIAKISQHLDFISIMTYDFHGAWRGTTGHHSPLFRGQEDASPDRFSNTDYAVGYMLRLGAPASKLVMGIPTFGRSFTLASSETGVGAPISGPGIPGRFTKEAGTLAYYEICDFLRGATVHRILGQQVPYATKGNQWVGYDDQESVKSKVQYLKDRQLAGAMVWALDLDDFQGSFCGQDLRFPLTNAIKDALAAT

COc1cc2cc(C3CCN(C(=O)c4csc(C)c4)CC3)ncc2cc1C [A9, compound A9]
Kd: 182 ± 18 µM
